Laboratory results as given in US11795404B2, “Composition for removing sulfur-containing compounds” (KURARAY CO., LTD., priority 2018, dated 2023).

Experiments:
[1] = Sulfur-containing compound removal reaction, BuSH in liquid hydrocarbon (GC-SCD); details: BuSH 50 μL (1000 ppm by volume) in kerosene 50 mL; aldehyde 250 μL; room temperature; reaction time 1 day
Experimental: In a 100 mL three-neck flask, 50 mL of kerosene was put and 50 μL (1000 ppm by volume, 0.46 mmol) of BuSH was added thereto to obtain a kerosene solution containing a sulfur-containing compound.
Next, 250 μL (2.59 mmol) of SAL and 250 μL (1.71 mmol) of DBU were added to the kerosene solution, and the solution was stirred at room temperature (20° C.±5° C., the same applies hereinafter) and at 800 rpm to perform a sulfur-containing compound removal reaction.
After 1-day reaction, the mercaptan concentration of the liquid phase in the three-neck flask was measured.
The mercaptan concentration of the liquid phase was measured using a calibration curve method by gas chromatography. The gas chromatography was performed under the following conditions.
Analyzer: GC-SCD (manufactured by Agilent Technologies Japan, Ltd.)
Detector: sulfur chemiluminescence detector (SCD)
Column: DB-sulfur SCD (length: 60 m, thickness: 4.2 μm, inner diameter: 0.32 mm) (manufactured by Agilent Technologies Japan, Ltd.)
Analytical conditions: inject. temp. 250° C., detect. temp. 250° C.
Temperature rise condition: 35° C. (kept for 3 minutes) (raised at 10° C./min)→250° C. (kept for 15 minutes)
Internal Standard Substance: diphenyl sulfide
A sulfur-containing compound removal reaction was performed in the same manner as in Example 3 except that crude oil was used in place of kerosene.

[2] = conjugate acid in water at 25° C.; cited from earlier work

Row | Compound | Removal rate [1] [%] | pKa [2]
1 | C=CC=O [Comparative Example 4, Acrolein] | 15 | 
2 | CC(C)=CC=O [Comparative Example 1, Senecioaldehyde] | <10 | 
3 | CN(C)CCN(C)CCN(C)C [PMDETA, N,N,N′,N″,N″-Pentamethydiethylenetriamine] |  | 9.1
4 | C1CCC2=NCCCN2CC1 [DBU, 1,8-Diazabicyclo[5.4.0]-7-undecene] |  | 11.5
